PubChem BioAssay AID342 (DTP/NCI, 2004)
Several values for one entry are separate records, joined by “and”; a condition that tells them apart may be missing. Equal values may be shown once.

Tested on: Swiss mice, Sarcoma 180 sc, mean tumor weight T/C
Test: NCI In Vivo Anticancer Drug Screen. Data for tumor model Sarcoma 180 (subcutaneous) in Swiss mice
Settings: endpoint: mean tumor weight, higher = larger tumour
Method in brief: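 T/C ratio: treated over vehicle-treated controls, measuring survival or tumor size in transplanted-tumor mice.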

[1] = dose: 5.0 mg/kg/injection, schedule: Q#A X014 (sc), vehicle: steriod suspending solution
[2] = dose: 50.0 mg/kg/injection, schedule: Q#A X014 (sc), vehicle: steriod suspending solution
[3] = dose: 100.0 mg/kg/injection, schedule: Q01DX007 (ip), vehicle: saline
[4] = dose: 200.0 mg/kg/injection, schedule: Q01DX007 (ip), vehicle: saline

For `COc1ccc2c(c1)CC[C@@H]1[C@@H]2CC[C@@]2(C)[C@H]1CC[C@]2(C)O`, the T/C (dose: 0.5 mg/kg/injection, schedule: Q#A X014 (sc), vehicle: steriod suspending solution) was 80 % of control, the T/C [1] was 113 % of control and the T/C [2] was 68 % of control.

With `NC(=O)Oc1ccccc1` the T/C (dose: 220.0 mg/kg/injection, schedule: Q01DX007 (ip), vehicle: other) was 69 % of control, the T/C (dose: 330.0 mg/kg/injection, schedule: Q01DX007 (ip), vehicle: other) was 84 % of control and the T/C (dose: 492.0 mg/kg/injection, schedule: Q01DX007 (ip), vehicle: other) was 65 % of control.

`NCCc1ccccc1` was tested, and the T/C (dose: 31.3 mg/kg/injection, schedule: Q01DX007 (ip), vehicle: saline) was 83 % of control and the T/C (dose: 62.5 mg/kg/injection, schedule: Q01DX007 (ip), vehicle: saline) was 32 % of control.

In the case of `O=C1C=CC(=O)N1c1ccc2c(c1)oc(=O)c1ccccc12`, the T/C (dose: 60.0 mg/kg/injection, schedule: Q01DX007 (ip), vehicle: other) is reported as 76 % of control, the T/C (dose: 95.0 mg/kg/injection, schedule: Q01DX007 (ip), vehicle: other) is reported as 58 % of control and the T/C (dose: 99.0 mg/kg/injection, schedule: Q01DX007 (ip), vehicle: steriod suspending solution) is reported as 51 % of control. The T/C (dose: 148.0 mg/kg/injection, schedule: Q01DX007 (ip), vehicle: other) was 42 % of control, the T/C (dose: 148.0 mg/kg/injection, schedule: Q01DX007 (ip), vehicle: steriod suspending solution) was 81 % of control and the T/C (dose: 222.0 mg/kg/injection, schedule: Q01DX007 (ip), vehicle: other) was 36 % of control and 44 % of control. The T/C (dose: 222.0 mg/kg/injection, schedule: Q01DX007 (ip), vehicle: steriod suspending solution) was 69 % of control, the T/C (dose: 333.0 mg/kg/injection, schedule: Q01DX007 (ip), vehicle: other) was 49 % of control and the T/C (dose: 500.0 mg/kg/injection, schedule: Q01DX007 (ip), vehicle: other) was 29 % of control.

`CSCS(=O)C[C@H](CO)NC(=O)/C=C/c1c(C)[nH]c(=O)[nH]c1=O` (some centres undefined) was tested, and the T/C (dose: 0.03 mg/kg/injection, schedule: Q#A X014 (ip), vehicle: saline) was 64 % of control, the T/C (dose: 0.06 mg/kg/injection, schedule: Q01DX007 (ip), vehicle: saline) was 81 % of control and the T/C (dose: 0.06 mg/kg/injection, schedule: Q01DX007 (sc), vehicle: saline) was 107 % of control. For the same compound, the T/C (dose: 0.06 mg/kg/injection, schedule: Q#A X014 (ip), vehicle: saline) was 54 % of control, the T/C (dose: 0.12 mg/kg/injection, schedule: Q#A X014 (ip), vehicle: saline) was 44 % of control and the T/C (dose: 0.13 mg/kg/injection, schedule: Q01DX007 (ip), vehicle: saline) was 50 % of control. The T/C (dose: 0.13 mg/kg/injection, schedule: Q01DX007 (sc), vehicle: saline) was 81 % of control, the T/C (dose: 0.19 mg/kg/injection, schedule: Q03DX003 (ip), vehicle: saline) was 88 % of control and the T/C (dose: 0.25 mg/kg/injection, schedule: Q01DX007 (ip), vehicle: saline) was 39 % of control. The T/C (dose: 0.25 mg/kg/injection, schedule: Q01DX007 (iv), vehicle: saline) was 87 % of control, the T/C (dose: 0.25 mg/kg/injection, schedule: Q01DX007 (oral), vehicle: saline) was 97 % of control and the T/C (dose: 0.25 mg/kg/injection, schedule: Q01DX007 (sc), vehicle: saline) was 78 % of control. The T/C (dose: 0.25 mg/kg/injection, schedule: Q#A X014 (ip), vehicle: saline) was 42 % of control, the T/C (dose: 0.38 mg/kg/injection, schedule: Q03DX003 (ip), vehicle: saline) was 76 % of control and the T/C (dose: 0.4 mg/kg/injection, schedule: Q#A X014 (ip), vehicle: carboxymethylcellulose (CMC)) was 58 % of control. The T/C (dose: 0.5 mg/kg/injection, schedule: Q01DX007 (ip), vehicle: saline) was 32 % of control, the T/C (dose: 0.5 mg/kg/injection, schedule: Q01DX007 (iv), vehicle: saline) was 86 % of control and the T/C (dose: 0.5 mg/kg/injection, schedule: Q01DX007 (oral), vehicle: saline) was 106 % of control. The T/C (dose: 0.5 mg/kg/injection, schedule: Q01DX007 (sc), vehicle: saline) was 17 % of control, the T/C (dose: 0.62 mg/kg/injection, schedule: Q#A X014 (ip), vehicle: carboxymethylcellulose (CMC)) was 27 % of control and the T/C (dose: 0.75 mg/kg/injection, schedule: Q#A X014 (ip), vehicle: carboxymethylcellulose (CMC)) was 20 % of control. The T/C (dose: 1.0 mg/kg/injection, schedule: Q01DX007 (iv), vehicle: saline) was 58 % of control, the T/C (dose: 1.0 mg/kg/injection, schedule: Q01DX007 (oral), vehicle: saline) was 59 % of control and the T/C (dose: 1.5 mg/kg/injection, schedule: Q03DX003 (ip), vehicle: saline) was 89 % of control. For the same compound, the T/C (dose: 2.0 mg/kg/injection, schedule: Q01DX007 (oral), vehicle: saline) was 99 % of control, the T/C (dose: 62.5 mg/kg/injection, schedule: Q#A X014 (ip), vehicle: carboxymethylcellulose (CMC)) was 79 % of control and the T/C (dose: 125.0 mg/kg/injection, schedule: Q#A X014 (ip), vehicle: carboxymethylcellulose (CMC)) was 74 % of control.

For `CCCCN(C)N=Nc1n[nH]nc1C(N)=O`, the T/C (dose: 16.0 mg/kg/injection, schedule: Q01DX007 (ip), vehicle: carboxymethylcellulose (CMC)) was 93 % of control, the T/C (dose: 31.0 mg/kg/injection, schedule: Q01DX007 (ip), vehicle: carboxymethylcellulose (CMC)) was 85 % of control and the T/C (dose: 62.0 mg/kg/injection, schedule: Q01DX007 (ip), vehicle: carboxymethylcellulose (CMC)) was 38 % of control.

In the case of `CN1C=c2c3c(ccc2=C2C=CC4C=C5OCOC5=CC4=C21)OCO3` (centres undefined), the T/C (dose: 1.3 mg/kg/injection, schedule: Q#A X014 (ip), vehicle: saline) is reported as 105 % of control, the T/C (dose: 2.0 mg/kg/injection, schedule: Q#A X014 (ip), vehicle: saline) is reported as 82 % of control and the T/C (dose: 3.0 mg/kg/injection, schedule: Q#A X014 (ip), vehicle: saline) is reported as 79 % of control and 96 % of control. For the same compound, the T/C (dose: 10.0 mg/kg/injection, schedule: Q#A X014 (ip), vehicle: saline) was 28 % of control, the T/C (dose: 12.0 mg/kg/injection, schedule: Q#A X014 (oral), vehicle: saline) was 84 % of control and the T/C (dose: 18.0 mg/kg/injection, schedule: Q#A X014 (oral), vehicle: saline) was 70 % of control. The T/C (dose: 27.0 mg/kg/injection, schedule: Q#A X014 (oral), vehicle: saline) was 73 % of control and the T/C (dose: 60.0 mg/kg/injection, schedule: Q#A X014 (oral), vehicle: saline) was 53 % of control.

`CC(=O)OCC(=O)C1(O)C(C)CC2C3C=C(C)C4=Cc5c(cnn5-c5ccccc5)CC4(C)C3C(O)CC21C` (centres undefined) was tested, and the T/C (dose: 0.16 mg/kg/injection, schedule: Q01DX007 (sc), vehicle: steriod suspending solution) was 115 % of control, the T/C (dose: 0.25 mg/kg/injection, schedule: Q01DX007 (sc), vehicle: steriod suspending solution) was 39 % of control and 42 % of control and the T/C (dose: 8.0 mg/kg/injection, schedule: Q01DX007 (sc), vehicle: steriod suspending solution) was 15 % of control.

`Nc1ncnc2nc[nH]c12` was tested, and the T/C (dose: 25.0 mg/kg/injection, schedule: Q01DX007 (ip), vehicle: saline) was 104 % of control, the T/C (dose: 50.0 mg/kg/injection, schedule: Q01DX007 (ip), vehicle: saline) was 87 % of control and the T/C [3] was 119 % of control. For the same compound, the T/C [4] was 57 % of control.

`CCOC(=O)CCCc1ccc(N=NN(C)C)cc1` was tested, and the T/C (dose: 20.0 mg/kg/injection, schedule: Q01DX007 (ip), vehicle: saline) was 99 % of control, the T/C (dose: 30.0 mg/kg/injection, schedule: Q01DX007 (ip), vehicle: saline) was 69 % of control and the T/C (dose: 40.0 mg/kg/injection, schedule: Q01DX007 (ip), vehicle: saline) was 63 % of control. For the same compound, the T/C (dose: 60.0 mg/kg/injection, schedule: Q01DX007 (ip), vehicle: saline) was 68 % of control, the T/C (dose: 75.0 mg/kg/injection, schedule: Q01DX007 (ip), vehicle: saline) was 38 % of control and the T/C [3] was 44 % of control. For the same compound, the T/C (dose: 150.0 mg/kg/injection, schedule: Q01DX007 (ip), vehicle: saline) was 31 % of control and the T/C [4] was 12 % of control.

For `CC(=O)N[C@H]1CC[C@H]2[C@@H]3CCC4=CC(=O)CC[C@]4(C)[C@H]3CC[C@]12C`, the T/C [1] was 105 % of control, the T/C [2] was 94 % of control and the T/C (dose: 100.0 mg/kg/injection, schedule: Q#A X014 (sc), vehicle: steriod suspending solution) was 78 % of control.

For `C[C@@H]1C[C@H]2[C@@H]3CCC4=CC(=O)C=C[C@]4(C)[C@@]3(F)[C@@H](O)C[C@]2(C)[C@@]1(O)C(=O)CO`, the T/C (dose: 7.0 mg/kg/injection, schedule: Q01DX007 (sc), vehicle: steriod suspending solution) was 50 % of control and 56 % of control, the T/C (dose: 11.0 mg/kg/injection, schedule: Q01DX007 (sc), vehicle: steriod suspending solution) was 38 % of control and 39 % of control and the T/C (dose: 16.0 mg/kg/injection, schedule: Q01DX007 (sc), vehicle: steriod suspending solution) was 35 % of control and 36 % of control and 47 % of control. For the same compound, the T/C (dose: 24.0 mg/kg/injection, schedule: Q01DX007 (sc), vehicle: steriod suspending solution) was 30 % of control and 35 % of control and 40 % of control.

`O=C(O)CC[S-].[Ag+]` was tested, and the T/C (dose: 187.5 mg/kg/injection, schedule: Q#A X014 (ip), vehicle: methylcellulose (MC)) was 59 % of control and 68 % of control and the T/C (dose: 281.0 mg/kg/injection, schedule: Q#A X014 (ip), vehicle: methylcellulose (MC)) was 69 % of control.
